According to US12599672B2, “KRAS proteolysis targeting chimeras” (PAQ Therapeutics Inc., priority 2023, dated 2026):

Tests used:
KRAS G12D = molecular target: T1, KRAS G12D (Homo sapiens, UniProt P01116, G12D); experiment: KRAS G12D HiBit assay; assay type: cell-based; settings: AsPc-1-KRAS (G12D)-HiBit-KI cell, compound treatment for 24 hours; for DC50: absolute DC50
T1 construct: AsPc-1-KRAS (G12D)-HiBit-KI cell (Pharmaron); host or cells: AsPc-1-KRAS (G12D)-HiBit-KI cells (HiBiT knock-in at the endogenous KRAS locus)
Method in brief: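 HiBiT luminescence, detected by adding lytic buffer, substrate and LgBiT protein, served as the KRAS G12D read-out. Compounds, serially diluted 3-fold over 10 points from 0.3 mM DMSO stock, were on cells for 24 h; percent inhibition normalized to cells given 0.1% DMSO only.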

KRAS G12V = molecular target: T2, KRAS G12V (Homo sapiens, UniProt P01116, G12V); experiment: KRAS G12V HiBit assay; assay type: cell-based; settings: SW620-KRAS (G12V)-HiBit-KI cells, compound treatment for 24 hours, class symbols
T2 construct: SW620-KRAS (G12V)-HiBit-KI cell (Pharmaron); host or cells: SW620-KRAS (G12V)-HiBit-KI cells (HiBiT knock-in at the endogenous KRAS locus)
Method: Day 1. […] Rinsed cultivated cells in T-75 flasks with 5 mL PBS (Solarbio, P1020-500). […] Inactivated trypsin by adding excessive serum containing medium. Harvested the cells from flask into cell culture medium and counted the cell number.
Day 2. Test compounds were dissolved at 0.3 mM in DMSO (Solarbio, D8371) as stock solution. […] Performed 3-fold, 10-points dilution via transferring 15 μL compound into 30 μL DMSO by using TECAN liquid handler (TECAN, Freedom EVO200). […] After compound treatment for 24 hours, the plate was removed from incubators and equilibrated at room temperature for 15 minutes. Prepare the HiBit reagent (Promega, N3040) by mixing 10 mL of Nano-Glo®-HiBiT Lytic Buffer with 200 μL of Nano-Glo®-HiBiT Lytic Substrate and 100 μL of LgBiT Protein. Added 20 μL of HiBit reagent into each well of the cell plate and spun the plates at room temperature at 1,000 RPM for 1 minute.
The degradation activity was calculated using the following formula:
[formula] where HC (high control) is obtained from cells treated with 0.1% DMSO only.

[1] = numeric bounds given in place of class symbols

T2 sequence (P01116 1-188 isoform P01116-2 G12V): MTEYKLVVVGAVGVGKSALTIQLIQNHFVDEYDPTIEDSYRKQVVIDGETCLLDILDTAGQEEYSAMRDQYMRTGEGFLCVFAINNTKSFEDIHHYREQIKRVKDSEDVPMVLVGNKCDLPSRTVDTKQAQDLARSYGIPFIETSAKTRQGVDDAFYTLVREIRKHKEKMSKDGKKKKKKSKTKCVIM
T1 sequence (P01116 1-188 isoform P01116-2 G12D): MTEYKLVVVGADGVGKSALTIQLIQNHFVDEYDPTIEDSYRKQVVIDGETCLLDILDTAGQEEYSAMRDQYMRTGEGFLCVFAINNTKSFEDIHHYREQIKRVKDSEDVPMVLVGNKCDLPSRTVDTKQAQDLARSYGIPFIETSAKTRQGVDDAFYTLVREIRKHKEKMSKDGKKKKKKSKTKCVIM

Compound	DC50 (KRAS G12D; class symbols)	Dmax (KRAS G12D; class symbols)	DC50 (KRAS G12V)	DC50 (KRAS G12D; [1])
CCc1c(F)ccc2cccc(-c3ncc4c(N5CCC[C@@](C)(O)C5)nc(OC[C@@]56CCCN5[C@H](COC(=O)N5CCC(CN7CCC(c8ccc9c(c8)n(C)c(=O)n9C8CCC(=O)NC8=O)CC7)CC5)CC6)nc4c3F)c12 (stereo partly drawn) [Compound 94, [(3S,8S)-8-[[7-(8-ethyl-7-fluoro-1-naphthyl)-8-fluoro-4-[(3R)-3-hydroxy-3-methyl-1-piperidyl]pyrido[4,3-d]pyrimidin-2-yl]oxymethyl]-1,2,3,5,6,7-hexahydropyrrolizin-3-yl]methyl-4-[[4-[1-(2,6-dioxo-3-piperidyl)-3-methyl-2-oxo-benzimidazol-5-yl]-1-piperidyl]methyl]piperidine-1-carboxylate]	< 100 nM	> 50%	> 100 nM	–
CCc1c(F)ccc2cc(O)cc(-c3ccc4c(N5CCC[C@@](C)(O)C5)nc(OC[C@]56CCCN5[C@H](COC(=O)N5CCC(CN7CCC(c8ccc9c(c8)n(C)c(=O)n9C8CCC(=O)NC8=O)CC7)CC5)CC6)nc4c3F)c12 (stereo partly drawn) [Compound 318, ((3S,7aR)-7a-(((7-(8-ethyl-7-fluoro-3-hydroxynaphthalen-1-yl)-8-fluoro-4-((R)-3-hydroxy-3-methylpiperidin-1-yl)quinazolin-2-yl)oxy)methyl)hexahydro-1H-pyrrolizin-3-yl)methyl 4-((4-(1-(2,6-dioxopiperidin-3-yl)-3-methyl-2-oxo-2,3-dihydro-1H-benzo[d]imidazol-5-yl)piperidin-1-yl)methyl)piperidine-1-carboxylate]	–	–	> 100 nM	> 100 nM
C#Cc1c(F)ccc2cccc(-c3ncc4c(N5CCC[C@@](C)(O)C5)nc(OC[C@@]56CCCN5[C@H](COC(=O)N5CCC(CN7CCC(c8ccc9c(c8)n(C)c(=O)n9C8CCC(=O)NC8=O)CC7)CC5)CC6)nc4c3F)c12 (stereo partly drawn) [Compound 3, [(3S,8S)-8-[[7-(8-Ethynyl-7-fluoro-1-naphthyl)-8-fluoro-4-[(3R)-3-hydroxy-3-methyl-1-piperidyl]pyrido[4,3-d]pyrimidin-2-yl]oxymethyl]-1,2,3,5,6,7-hexahydropyrrolizin-3-yl]methyl 4-[[4-[1-(2,6-dioxo-3-piperidyl)-3-methyl-2-oxo-benzimidazol-5-yl]-1-piperidyl]methyl]piperidine-1-carboxylate]	< 100 nM	> 50%	> 100 nM	–
CCc1c(F)ccc2cc(O)cc(-c3ccc4c(N5CCC[C@@](C)(O)C5)nc(OC[C@@]56CCCN5[C@@H](COC(=O)N5CCC(CN7CCC(c8ccc9c(c8)n(C)c(=O)n9C8CCC(=O)NC8=O)CC7)CC5)CC6)nc4c3F)c12 (stereo partly drawn) [Compound 319, ((3R,7aS)-7a-(((7-(8-ethyl-7-fluoro-3-hydroxynaphthalen-1-yl)-8-fluoro-4-((R)-3-hydroxy-3-methylpiperidin-1-yl)quinazolin-2-yl)oxy)methyl)hexahydro-1H-pyrrolizin-3-yl)methyl 4-((4-(1-(2,6-dioxopiperidin-3-yl)-3-methyl-2-oxo-2,3-dihydro-1H-benzo[d]imidazol-5-yl)piperidin-1-yl)methyl)piperidine-1-carboxylate]	–	–	> 100 nM	> 100 nM
CCc1c(F)ccc2cc(O)cc(-c3ncc4c(N5CCC[C@@](C)(O)C5)nc(OC[C@@]56CCCN5[C@H](CN5CCC(OCCCc7ccc8c(c7)n(C)c(=O)n8C7CCC(=O)NC7=O)CC5)CC6)nc4c3F)c12 (stereo partly drawn) [Compound 486, 3-(5-(3-((1-(((3S,7aS)-7a-(((7-(8-ethyl-7-fluoro-3-hydroxynaphthalen-1-yl)-8-fluoro-4-((R)-3-hydroxy-3-methylpiperidin-1-yl)pyrido[4,3-d]pyrimidin-2-yl)oxy)methyl)hexahydro-1H-pyrrolizin-3-yl)methyl)piperidin-4-yl)oxy)propyl)-3-methyl-2-oxo-2,3-dihydro-1H-benzo[d]imidazol-1-yl)piperidine-2,6-dione]	–	–	> 100 nM	> 100 nM
CCc1c(F)ccc2cc(O)cc(-c3ncc4c(N5CCC[C@@](C)(O)C5)nc(OC[C@]56CCCN5[C@H](COC(=O)N5CCC(Oc7cccc8c7n(C)c(=O)n8C7CCC(=O)NC7=O)CC5)CC6)nc4c3F)c12 (stereo partly drawn) [Compound 306, ((3S,7aR)-7a-(((7-(8-ethyl-7-fluoro-3-hydroxynaphthalen-1-yl)-8-fluoro-4-((R)-3-hydroxy-3-methylpiperidin-1-yl)pyrido[4,3-d]pyrimidin-2-yl)oxy)methyl)hexahydro-1H-pyrrolizin-3-yl)methyl 4-((1-(2,6-dioxopiperidin-3-yl)-3-methyl-2-oxo-2,3-dihydro-1H-benzo[d]imidazol-4-yl)oxy)piperidine-1-carboxylate]	–	–	10 to 100 nM	> 100 nM
C#Cc1c(F)ccc2cc(O)cc(-c3ncc4c(N5CCC[C@@](C)(O)C5)nc(OCC5(CN6CCN(CCN7CCN(c8ccc9c(c8)n(C)c(=O)n9C8CCC(=O)NC8=O)CC7)CC6)CC5)nc4c3F)c12 (stereo partly drawn) [Compound 28]	< 100 nM	–	> 100 nM	–

The remaining lines, values ahead:

DC50 (KRAS G12D; class symbols)	Dmax (KRAS G12D; class symbols)	DC50 (KRAS G12V)	DC50 (KRAS G12D; [1])	Compound
< 100 nM	–	< 10 nM	–	CCc1c(F)ccc2cc(O)cc(-c3ncc4c(N5CCC[C@@](C)(O)C5)nc(OC[C@@]56CCCN5[C@H](COC(=O)N5CCC(N7CC8(CCN(c9ccc%10c(c9)n(C)c(=O)n%10C9CCC(=O)NC9=O)CC8)C7)CC5)CC6)nc4c3F)c12 (stereo partly drawn) [Compound 362, ((3S,7aS)-7a-(((7-(8-ethyl-7-fluoro-3-hydroxynaphthalen-1-yl)-8-fluoro-4-((R)-3-hydroxy-3-methylpiperidin-1-yl)pyrido[4,3-d]pyrimidin-2-yl)oxy)methyl)hexahydro-1H-pyrrolizin-3-yl)methyl 4-(7-(1-(2,6-dioxopiperidin-3-yl)-3-methyl-2-oxo-2,3-dihydro-1H-benzo[d]imidazol-5-yl)-2,7-diazaspiro[3.5]nonan-2-yl)piperidine-1-carboxylate]
< 100 nM	–	< 10 nM	–	CCc1c(F)ccc2cc(O)cc(-c3ncc4c(N5CCC[C@@](C)(O)C5)nc(OC[C@@]56CCCN5[C@H](COC(=O)N5CCC(C)(CN7CCN(c8ccc9c(c8)n(C)c(=O)n9C8CCC(=O)NC8=O)CC7)CC5)CC6)nc4c3F)c12 (stereo partly drawn) [Compound 502, ((3S,7aS)-7a-(((7-(8-ethyl-7-fluoro-3-hydroxynaphthalen-1-yl)-8-fluoro-4-((R)-3-hydroxy-3-methylpiperidin-1-yl)pyrido[4,3-d]pyrimidin-2-yl)oxy)methyl)hexahydro-1H-pyrrolizin-3-yl)methyl 4-((4-(1-(2,6-dioxopiperidin-3-yl)-3-methyl-2-oxo-2,3-dihydro-1H-benzo[d]imidazol-5-yl)piperazin-1-yl)methyl)-4-methylpiperidine-1-carboxylate]
< 100 nM	–	10 to 100 nM	–	CCc1c(F)ccc2cc(O)cc(-c3ncc4c(N5CCC[C@@](C)(O)C5)nc(OC[C@@]56CCCN5[C@H](COC(=O)c5ccc(N7CCC(c8ccc9c(c8)n(C)c(=O)n9C8CCC(=O)NC8=O)CC7)cc5)CC6)nc4c3F)c12 (stereo partly drawn) [Compound 495, ((3S,7aS)-7a-(((7-(8-ethyl-7-fluoro-3-hydroxynaphthalen-1-yl)-8-fluoro-4-((R)-3-hydroxy-3-methylpiperidin-1-yl)pyrido[4,3-d]pyrimidin-2-yl)oxy)methyl)hexahydro-1H-pyrrolizin-3-yl)methyl 4-(4-(1-(2,6-dioxopiperidin-3-yl)-3-methyl-2-oxo-2,3-dihydro-1H-benzo[d]imidazol-5-yl)piperidin-1-yl)benzoate]
< 100 nM	–	10 to 100 nM	–	CCc1c(F)ccc2cc(O)cc(-c3ncc4c(N5CCC[C@@](C)(O)C5)nc(OC[C@@]56CCCN5[C@H](COc5ccc(CCN7CCC(c8ccc9c(c8)n(C)c(=O)n9C8CCC(=O)NC8=O)CC7)cc5)CC6)nc4c3F)c12 (stereo partly drawn) [Compound 499, 3-(5-(1-(4-(((3S,7aS)-7a-(((7-(8-Ethyl-7-fluoro-3-hydroxynaphthalen-1-yl)-8-fluoro-4-((R)-3-hydroxy-3-methylpiperidin-1-yl)pyrido[4,3-d]pyrimidin-2-yl)oxy)methyl)hexahydro-1H-pyrrolizin-3-yl)methoxy)phenethyl)piperidin-4-yl)-3-methyl-2-oxo-2,3-dihydro-1H-benzo[d]imidazol-1-yl) piperidine-2,6-dione]
